Test results as given in US7892350B2, “Sacrificial agents for fly ash concrete” (Boral Material Technologies Inc., priority 2003, dated 2011).

Tests used:
[1] = Paste air entrainment, Minimum air protocol
Protocol: (§1) Preparation of pastes: Pastes were prepared by pouring 400 g of cementitious powder in the 350-400 g of solution (water and additives) in a vessel (8.4 cm dia,×14.5 cm height) while gently stirring with a spatula; the exact quantity of water depends on the selected W/B ratio (see below); rapid hand mixing was continued for 1 minute, followed by intense stirring at 25° C. during 2 min using a hand-held mixer (BRAUN model MR400). The level of air entrained is dependent on the mode of utilisation of the mixer, namely the height of the mixer from the bottom of the vessel and the length of the mixing stroke; the following protocols were adopted.
Minimum air protocol: The BRAUN mixer is positioned at 1.0 inch from the bottom of the mixing vessel and the up-down motion of the mixer is limited to a 1.0 inch displacement; this provided ‘minimum air’ entrained air levels and is later referred to as ‘Minimum air protocol’ (Results reported in Table 6, col. 1 and Table 7).
(§2) Fluidity measurements: For all air entrainment measurements, the initial fluidity of the paste (without additives) was controlled using the ‘mini-slump’ procedure widely used for paste and grouts. In this protocol, a portion of the paste was transferred into the min-slump cone (a 2¼″ high, 1½″ bottom diameter, ¾″ top diameter cone); excess paste was skimmed-off with a straight; the cone was then raised and the spread diameter of the paste was recorded (average of two measurements). The fluidity is measured at 10 minutes after mixing. The paste is returned to the batch and reserved for subsequent AE measurements. The fluidity of the paste (without SA and AEA) is adjusted by changing the amount of water (water/cementitious ratio) which yields a spread diameter of 115±5 mm. The latter is monitored regularly.
(§3) Air entrainment measurements: For air entrainment measurements, a portion of the paste was transferred to overfill a Plexiglas cylinder (3¾ inches height, 2 inches interior diameter), which was then levelled flush to the top of the cylinder with a straight edge. The mass of the filled cylinder, minus the weight of the empty cylinder, is then recorded and used to calculate the amount of air according to the following formula: […]
(§4) This procedure was carried out at three times at 30 min. intervals (6, 36 and 66 min); the paste was let to stand at rest between measurements, and was stirred gently by hand for one minute prior to the subsequent air entrainment measurements.
Typical mixture compositions for air entrainment measurements in pastes containing a single additive using ‘Minimum air protocol’ (results shown in Table 6, col. 1): […]

[2] = Adsorption/precipitation of SA or AEA in 10 wt % aqueous fly ash or cement slurries at pH 12.5; format: physicochemical; details: initial SA 3 mM
Protocol: Adsorption/Precipitation of Sacrificial Agents (SA) or Air Entrainment Agents (AEA) in 10 wt % Aqueous Fly Ash Slurries at pH 12.5:
(§5) The pH of the solutions were adjusted to 12.5 with NaOH.
Adsorption/Precipitation in FA or Cement Slurries: In this protocol, aqueous slurries containing 10 wt % FA or cement were prepared as described above, except that in this case, the cement was added directly into a solution of the SA or AEA in the following proportions: 3.0 g cement or FA, and 27 g of 3 mM sacrificial agent, or 27 g of 1050 mg/l AEA; the latter were prepared in the same way as in the precipitation test above. The residual (soluble) SA or AEA content in the solution was also determined by UV or COD.

[3] = Precipitation in slurry extract or leachate; format: physicochemical; details: pH 12.5, entries in parentheses
Protocol: as §5
Precipitation in slurry extract or leachate: To perform this test, FA or cement leachate were prepared in advance, by filtering two liters of a 10 wt % FA, or cement, slurry in 0.03N NaOH which had been left to stand under slow agitation for 30 min; 2.5 g of the filtrate solution was mixed with 22.5 g of the SA or AEA solution in a 50 ml polypropylene centrifuge tube; the latter was shaken vigorously in an orbital shaker (Eberbach Corporation) for 30 min at room temperature, centrifuged for 5 min and then the supernatant solution was filtered (0.45 μm). The SA or AEA content of the solution was determined using an Ultraviolet-Visible (UV) spectrometer or by COD (Chemical Oxygen Demand) measurement.
Entries in parentheses: % precipitation when reacted with solutions extracted from the fly ash slurries (Results in Table 5).

[4] = Paste air entrainment, Maximum air protocol
Protocol: as §1, §2, §3, §4
Other combinations of air entrainment agents and sacrificial agents were prepared as stock solutions following the procedure outlined above, adjusting the weights of the various components to achieve the desired component ratios.

Structure (SMILES): OCCOc1ccccc1 [EGPE, Ethylene glycol phenyl ether]
- Air entrained ([1]; 50:50 fly ash B1 (LOI 4.36%):PCA paste, 0.1 wt % Air 30 alone or with 0.05 wt % of the SA): 4 vol %
- Air entrained ([1]; 50:50 fly ash C1 (LOI 1.62%):PCA paste, 0.1 wt % Air 30 alone or with 0.05 wt % of the SA): 5 vol %
- Air entrained ([1]; 50:50 fly ash D (LOI […]):PCA paste, 0.1 wt % Air 30 alone or with 0.05 wt % of the SA): 5 vol %
- Air entrained ([1]; 50:50 fly ash M1 (LOI […]):PCA paste, 0.1 wt % Air 30 alone or with 0.05 wt % of the SA): 5 vol %
- Air entrained ([1]; 50:50 fly ash M2 (LOI 5.34%):PCA paste, 0.1 wt % Air 30 alone or with 0.05 wt % of the SA): 4 vol %
- Air entrained ([1]; 50:50 fly ash M3 (LOI 11.33%):PCA paste, 0.1 wt % Air 30 alone or with 0.05 wt % of the SA): 4 vol %
- Air entrained ([1]; 50:50 fly ash R (LOI […]):PCA paste, 0.1 wt % Air 30 alone or with 0.05 wt % of the SA): 5 vol %
- Air entrained ([1]; PCA cement paste, 0.1% SA or AEA alone, Minimum air protocol): 0 vol %
- Average of air entrained ([1]; over the fly ash:PCA pastes of Table 7, 0.1 wt % Air 30 alone or with 0.05 wt % of the SA): 4%
- Adsorption (wt % Adsorbed) ([2]; 10 wt % fly ash B1 (LOI 4.36%) slurry, Air 30/Air 40 0.105 wt %): 12 wt %
- Adsorption (wt % Adsorbed) ([2]; 10 wt % fly ash C1, class C (LOI 1.62%) slurry, Air 30/Air 40 0.105 wt %): 12 wt %
- Adsorption (wt % Adsorbed) ([2]; 10 wt % fly ash C2 (LOI 3.32%) slurry): 6 wt %
- Adsorption (wt % Adsorbed) ([2]; 10 wt % fly ash M1 (LOI […]) slurry, Air 30/Air 40 0.105 wt %): 4 wt %
- Adsorption (wt % Adsorbed) ([2]; 10 wt % fly ash M2 (LOI 5.34%) slurry, Air 30/Air 40 0.105 wt %): 14 wt %
- Adsorption (wt % Adsorbed) ([2]; 10 wt % fly ash M3 (LOI 11.33%) slurry, Air 30/Air 40 0.105 wt %): 14 wt %
- Adsorption (wt % Adsorbed) ([2]; 10 wt % fly ash N (LOI 0.30%) slurry): 1 wt %
- Precipitation (wt % precipitated) ([3]; solution extracted from 10 wt % fly ash B1 (LOI 4.36%) slurry): 0 wt %
- Precipitation (wt % precipitated) ([3]; solution extracted from 10 wt % fly ash C1, class C (LOI 1.62%) slurry): 0 wt %
- Precipitation (wt % precipitated) ([3]; solution extracted from 10 wt % fly ash C2 (LOI 3.32%) slurry): 0 wt %
- Precipitation (wt % precipitated) ([3]; solution extracted from 10 wt % fly ash M1 (LOI […]) slurry): 1 wt %
- Precipitation (wt % precipitated) ([3]; solution extracted from 10 wt % fly ash M2 (LOI 5.34%) slurry): 0 wt %
- Precipitation (wt % precipitated) ([3]; solution extracted from 10 wt % fly ash M3 (LOI 11.33%) slurry): 0 wt %
- Precipitation (wt % precipitated) ([3]; solution extracted from 10 wt % fly ash N (LOI 0.30%) slurry): 0 wt %
- Air entrained at 66 min ([4]; 50:50 fly ash B1 (LOI 4.36%):PCA paste, Air 30 (0.0125%)/NS/X=1/4/4, X = the labelled SA): 4 vol %
- Air entrained at 66 min ([4]; 50:50 fly ash B1 (LOI 4.36%):PCA paste, Air 30 (0.0125 wt %)/ND/X=1/4/4, X = the labelled SA): 14 vol %
- Air entrained at 66 min ([4]; 50:50 fly ash C1 (LOI 1.62%):PCA paste, Air 30 (0.0125%)/NS/X=1/4/4, X = the labelled SA): 9 vol %
- Air entrained at 66 min ([4]; 50:50 fly ash C1 (LOI 1.62%):PCA paste, Air 30 (0.0125 wt %)/ND/X=1/4/4, X = the labelled SA): 19 vol %
- Air entrained at 66 min ([4]; 50:50 fly ash D (LOI […]):PCA paste, Air 30 (0.0125%)/NS/X=1/4/4, X = the labelled SA): 15 vol %
- Air entrained at 66 min ([4]; 50:50 fly ash D (LOI […]):PCA paste, Air 30 (0.0125 wt %)/ND/X=1/4/4, X = the labelled SA): 22 vol %
- Air entrained at 66 min ([4]; 50:50 fly ash M1 (LOI […]):PCA paste, Air 30 (0.0125%)/NS/X=1/4/4, X = the labelled SA): 11 vol %
- Air entrained at 66 min ([4]; 50:50 fly ash M1 (LOI […]):PCA paste, Air 30 (0.0125 wt %)/ND/X=1/4/4, X = the labelled SA): 18 vol %
- Air entrained at 66 min ([4]; 50:50 fly ash M2 (LOI 5.34%):PCA paste, Air 30 (0.0125%)/NS/X=1/4/4, X = the labelled SA): 3 vol %
- Air entrained at 66 min ([4]; 50:50 fly ash M2 (LOI 5.34%):PCA paste, Air 30 (0.0125 wt %)/ND/X=1/4/4, X = the labelled SA): 11 vol %
- Air entrained at 66 min ([4]; 50:50 fly ash M3 (LOI 11.33%):PCA paste, Air 30 (0.0125%)/NS/X=1/4/4, X = the labelled SA): 3 vol %
- Air entrained at 66 min ([4]; 50:50 fly ash M3 (LOI 11.33%):PCA paste, Air 30 (0.0125 wt %)/ND/X=1/4/4, X = the labelled SA): 13 vol %
- Air entrained at 66 min ([4]; 50:50 fly ash R (LOI […]):PCA paste, Air 30 (0.0125%)/NS/X=1/4/4, X = the labelled SA): 11 vol %
- Air entrained at 66 min ([4]; 50:50 fly ash R (LOI […]):PCA paste, Air 30 (0.0125 wt %)/ND/X=1/4/4, X = the labelled SA): 18 vol %
- Air entrained ([4]; PCA cement paste, 0.0125% SA or AEA alone, Maximum air protocol): 1 vol %
- Air entrained at 66 min ([4]; PCA paste, no fly ash, Air 30 (0.0125 wt %)/ND/X=1/4/4, X = the labelled SA): 23 vol %
- air entrained (average) ([4]; fly ash:cement pastes, SA added at four (4) times the fixed Air 30 dosage (0.0125%)): 7%
- Average of air entrained at 66 min ([4]; over the fly ash:PCA pastes of Table 9, Air 30 (0.0125 wt %)/ND/X=1/4/4, X = the labelled SA): 17%
